According to US6605424B1, “Method of detecting inhibitors of agonist-specific desensitization” (Duke University, priority 1989, dated 2003):

Experiments:
[1] = system: β2ARs in intact A431 cells; test: Desensitization of β2ARs in intact A431 cells; type: cell-based, human; conditions: data not shown
[2] = system: β2ARs in permeabilized A431 cells; test: Phosphorylation of β2ARs in permeabilized A431 cells; type: cell-based, human; conditions: 1 μM heparin
Experimental: FIG. 8. Phosphorylation of β2ARs in permeabilized A431 cells. […] FIG. 8A: Autoradiogram obtained after a 10-day exposure at −70° C. FIG. 8B: Transverse densitometric scan of the autoradiogram.
β2ARs in permeabilized A431 cells were phosphorylated as follows. Permeabilized cells (4×10^8) in 10 ml of KG-A buffer containing 1 mCi (1 Ci=37 GBq) of [γ-^32P]ATP were incubated with or without 1 μM (−)-isoproterenol (and other compounds as indicated) for 10 min at 37° C. All buffers used in these experiments contained 5 μg of soybean tryspin inhibitor, 5 μg of leupeptin, and 10 μg of benzamidine per ml and 0.1 mM phenylmethylsulfonyl fluoride. […] After three identical washing steps, crude membranes were prepared as above.
Aliquots of the samples (≈60 fmol of β2ARs) were desalted over Sephadex G-50 and incubated for 2 hr at 20° C. with 200 pM of the ligand with or without 10 μM alprenolol. Free ligand was removed by desalting as above, and the samples were irradiated with UV light for 3 min. The samples were loaded on the same gel as the samples described above.

[3] = system: permeabilized A431 cells; test: Accumulation of [32P]cAMP in permeabilized cells; type: cell-based, human; conditions: up to 1 μM; presence or absence of isoproterenol
[4] = target: T1, βAR kinase (Bos taurus, UniProt P21146); test: Phosphorylation of rhodopsin (urea-treated rod outer segments) by βAR kinase; type: biochemical, bovine
T1 construct: βAR kinase was purified from bovine cerebral cortex; from tissue; host or cells: bovine cerebral cortex
T1 sequence (P21146 1-689): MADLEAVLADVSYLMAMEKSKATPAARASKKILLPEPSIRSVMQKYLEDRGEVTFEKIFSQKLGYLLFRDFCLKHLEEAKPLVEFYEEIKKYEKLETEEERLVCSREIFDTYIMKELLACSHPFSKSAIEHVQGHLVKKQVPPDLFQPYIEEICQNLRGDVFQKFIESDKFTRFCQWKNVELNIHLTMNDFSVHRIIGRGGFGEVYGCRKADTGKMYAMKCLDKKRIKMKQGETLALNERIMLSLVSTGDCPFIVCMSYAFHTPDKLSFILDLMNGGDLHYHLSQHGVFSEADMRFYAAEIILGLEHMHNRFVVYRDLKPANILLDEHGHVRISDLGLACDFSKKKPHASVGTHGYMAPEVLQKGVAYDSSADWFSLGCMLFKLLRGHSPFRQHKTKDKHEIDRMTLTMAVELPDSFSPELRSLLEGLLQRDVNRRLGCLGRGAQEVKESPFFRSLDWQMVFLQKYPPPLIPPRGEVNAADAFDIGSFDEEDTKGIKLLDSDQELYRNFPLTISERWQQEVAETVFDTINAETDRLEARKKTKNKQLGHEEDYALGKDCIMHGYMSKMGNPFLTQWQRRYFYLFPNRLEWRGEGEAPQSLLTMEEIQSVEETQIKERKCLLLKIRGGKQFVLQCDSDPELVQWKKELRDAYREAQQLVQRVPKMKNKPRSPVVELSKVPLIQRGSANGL

heparin
effect on desensitization in intact cells [1]: Neither compound affected desensitization
effect on basal phosphorylation of β2ARs [2]: not affecting basal phosphorylation
reduction of isoproterenol-induced phosphorylation of β2ARs ([2]; 1 μM isoproterenol, 10 min, three experiments): 50-80%
effect on [32P]cAMP formation [3]: did not reduce
type of inhibition with respect to ATP ([4]; ATP 33 to 100 μM): mixed type inhibitor
type of inhibition with respect to rhodopsin ([4]; rhodopsin 3 to 20 μM): competitive inhibitor
